The source made the active and inactive calls.
What was measured:
[1] = target: T1, Corticotropin-releasing factor receptor 2/Corticotropin-releasing factor-binding protein (Homo sapiens, UniProt P24387+Q13324); assay: activators of CRF receptor 2 with binding protein – uHTS hits, confirmation (AID 602473); type: functional; conditions: read-out: EC50_Mean
T1 sequence (Q13324 whole entry): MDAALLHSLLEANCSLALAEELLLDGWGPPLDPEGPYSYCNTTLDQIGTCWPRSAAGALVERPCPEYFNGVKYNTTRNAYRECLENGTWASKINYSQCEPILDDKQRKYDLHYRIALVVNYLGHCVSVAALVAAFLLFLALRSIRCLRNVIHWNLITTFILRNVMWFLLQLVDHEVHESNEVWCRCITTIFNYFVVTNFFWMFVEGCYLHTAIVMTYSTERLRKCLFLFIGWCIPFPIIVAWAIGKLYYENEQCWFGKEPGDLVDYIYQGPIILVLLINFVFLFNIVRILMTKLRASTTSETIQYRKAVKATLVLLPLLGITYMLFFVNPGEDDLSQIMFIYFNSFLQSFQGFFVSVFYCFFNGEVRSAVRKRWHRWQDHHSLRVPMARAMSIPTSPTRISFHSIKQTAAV
T1 sequence (P24387 whole entry): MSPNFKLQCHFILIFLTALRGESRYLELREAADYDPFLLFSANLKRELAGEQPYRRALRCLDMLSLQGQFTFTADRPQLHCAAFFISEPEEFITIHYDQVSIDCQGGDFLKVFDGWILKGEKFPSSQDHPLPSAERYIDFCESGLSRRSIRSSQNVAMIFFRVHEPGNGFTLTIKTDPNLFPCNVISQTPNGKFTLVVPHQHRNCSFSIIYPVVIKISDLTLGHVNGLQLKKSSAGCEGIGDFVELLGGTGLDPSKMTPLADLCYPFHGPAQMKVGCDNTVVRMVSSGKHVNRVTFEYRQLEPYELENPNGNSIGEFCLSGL

[2] = target: T1, Corticotropin-releasing factor receptor 2/Corticotropin-releasing factor-binding protein; assay: Dose Response confirmation of uHTS hits for small molecule antagonists of the CRF-binding protein and CRF-R2 receptor complex.; type: functional; conditions: read-out: IC50_Mean
[3] = target: T2, Zinc finger protein mex-5 (Caenorhabditis elegans, UniProt Q9XUB2); assay: MEX-5/TCR-2 RNA interaction inhibitors, dose response, biochemical, C. elegans, fluorescence polarization (AID 1960)
T2 sequence (Q9XUB2 whole entry): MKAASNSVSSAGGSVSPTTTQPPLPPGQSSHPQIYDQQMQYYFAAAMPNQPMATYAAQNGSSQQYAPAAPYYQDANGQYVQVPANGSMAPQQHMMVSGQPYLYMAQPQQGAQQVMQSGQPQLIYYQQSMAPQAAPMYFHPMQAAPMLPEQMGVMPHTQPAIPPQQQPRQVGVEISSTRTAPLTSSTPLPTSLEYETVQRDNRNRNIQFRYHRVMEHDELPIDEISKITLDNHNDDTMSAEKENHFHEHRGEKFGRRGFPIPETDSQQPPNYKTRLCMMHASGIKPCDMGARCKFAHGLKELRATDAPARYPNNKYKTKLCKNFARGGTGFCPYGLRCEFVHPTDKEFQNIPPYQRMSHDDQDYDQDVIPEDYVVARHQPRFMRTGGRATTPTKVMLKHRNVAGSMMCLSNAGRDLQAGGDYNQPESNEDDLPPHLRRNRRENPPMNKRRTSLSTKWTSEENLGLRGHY

[4] = target: T3, RNA-binding protein pos-1 (Caenorhabditis elegans, UniProt G5EF15); assay: inhibitors of POS-1/mex-3 RNA binding, dose response, biochemical, fluorescence polarization (AID 1964);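 note: purified POS-1 fused to maltose binding protein made in E. coli; potency of compounds blocking POS-1 binding to fluorescent RNA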
T3 sequence (G5EF15 whole entry): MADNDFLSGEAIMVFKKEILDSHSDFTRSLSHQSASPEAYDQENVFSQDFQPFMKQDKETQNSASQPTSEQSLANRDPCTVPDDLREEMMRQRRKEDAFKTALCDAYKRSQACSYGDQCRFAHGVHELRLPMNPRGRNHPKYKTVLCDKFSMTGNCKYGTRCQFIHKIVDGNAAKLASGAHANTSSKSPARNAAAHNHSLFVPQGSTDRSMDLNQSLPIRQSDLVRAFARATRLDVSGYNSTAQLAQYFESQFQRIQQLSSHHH

[5] = Luminescence Cell-Based Dose Retest to Confirm Inhibitors of Cancer Stem Cells. [Related pubchem assays (depositor defined):AID2717, AID2721]; type: functional; conditions: Homo sapiens
Cytochrome P450 2C9 = Cytochrome P450 2C9 (Homo sapiens, UniProt P11712)
Cytochrome P450 2C9, sequence (P11712 whole entry): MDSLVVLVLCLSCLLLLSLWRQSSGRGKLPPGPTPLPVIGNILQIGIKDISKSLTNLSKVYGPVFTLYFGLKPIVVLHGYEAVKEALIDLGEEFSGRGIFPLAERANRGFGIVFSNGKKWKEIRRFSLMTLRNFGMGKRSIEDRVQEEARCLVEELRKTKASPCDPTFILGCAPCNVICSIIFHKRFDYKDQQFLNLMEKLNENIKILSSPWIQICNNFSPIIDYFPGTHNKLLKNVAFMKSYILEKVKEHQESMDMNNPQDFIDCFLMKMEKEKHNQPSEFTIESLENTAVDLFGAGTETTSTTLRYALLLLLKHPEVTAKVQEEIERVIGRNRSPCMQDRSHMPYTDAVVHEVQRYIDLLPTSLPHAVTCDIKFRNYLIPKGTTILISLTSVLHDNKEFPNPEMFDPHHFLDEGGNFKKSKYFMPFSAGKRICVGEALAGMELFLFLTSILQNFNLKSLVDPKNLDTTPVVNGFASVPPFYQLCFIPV

cells [6] = type: functional, cell-based
[7] = cytotoxicity toward NIH3T3 fibroblasts, dose response, counter-screen, cell-based, ATP luminescence, mouse fibroblasts (AID 2010); type: functional;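 note: cells exposed to compound for about 90 hours before reading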
[8] = inhibitors of intracellular T. cruzi replication, confirmation, NIH3T3 host cells, beta-gal luminescence (AID 2044); type: functional, cell-based;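 note: intracellular parasites grown in NIH/3T3 mouse fibroblasts as host cells; luminescent beta-galactosidase reporter signal from transgenic T. cruzi replicating inside host cells; inhibitors lower the luminescence signal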
INS1 = assay: beta cell apoptosis inhibitors, cytokine rescue, dose response, luminescence, retest (AID 449756); type: functional, cell-based; conditions: Rattus norvegicus, INS1;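 note: cell death triggered by IL-1 beta plus TNF-alpha plus IFN-gamma mixture; protective hits raise ATP signal compared with cytokine alone wells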
cells [9] = type: functional, cell-based; remark: listed apart in the source
Cytochrome P450 2C19 = Cytochrome P450 2C19 (Homo sapiens, UniProt P33261); assay: Cytochrome panel assay with activity outcomes. Panel member name: p450-cyp2c19 Compounds with AC50 equal or less than 10 uM are considered active; type: functional
Cytochrome P450 2C19, sequence (P33261 whole entry): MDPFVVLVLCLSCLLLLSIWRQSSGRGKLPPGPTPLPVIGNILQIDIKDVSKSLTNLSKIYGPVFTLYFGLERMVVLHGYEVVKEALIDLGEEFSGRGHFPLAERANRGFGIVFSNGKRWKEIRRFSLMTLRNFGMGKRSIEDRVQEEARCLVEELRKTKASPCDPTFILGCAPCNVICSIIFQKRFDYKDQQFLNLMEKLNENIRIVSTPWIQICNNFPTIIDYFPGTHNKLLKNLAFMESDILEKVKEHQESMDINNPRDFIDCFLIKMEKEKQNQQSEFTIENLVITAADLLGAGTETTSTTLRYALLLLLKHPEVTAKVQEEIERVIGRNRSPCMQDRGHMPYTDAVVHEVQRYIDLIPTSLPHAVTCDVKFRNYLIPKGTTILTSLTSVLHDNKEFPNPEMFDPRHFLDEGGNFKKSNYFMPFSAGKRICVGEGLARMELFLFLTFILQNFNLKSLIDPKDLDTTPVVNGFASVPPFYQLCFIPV

[10] = HepG2 cell cytotoxicity, dose response, cytotoxicity control for Shn3 inhibitor project, CellTiter-Glo, cherry-picked (AID 624134); type: functional, cell-based
[11] = Shn3 3'UTR reporter inhibitors, dose response, cell-based, Clone20 osteoblasts, firefly luciferase, cherry-picked (AID 624132); type: functional;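 note: firefly luciferase luminescence from reporter carrying the Shn3 3'UTR in osteoblasts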
[12] = test system: Streptococcus sp. 'group A'; assay: growth inhibition of control SK(-) GAS strain, dose response, counter-screen for streptokinase expression inhibitor project, luminescence, kanamycin, BacTiterGlo, confirmation (AID 1900); type: functional, organism-based
Streptococcus = assay: Group A Streptococcus viability loss, dose response, counter-screen for streptokinase expression inhibitor project, luminescence, BacTiterGlo (AID 1915); type: functional, organism-based;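 note: potency for reduction of bacterial viability or growth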
Streptokinase A = target: T4, Streptokinase A (Streptococcus pyogenes serotype M1, UniProt P10520); assay: S. pyogenes streptokinase expression inhibitors, potency, dose response, plasminogen activation absorbance, OD405 (AID 1914); type: functional, Streptococcus pyogenes M1 GAS;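 note: secreted streptokinase activity via plasminogen activation per viability signal from cell pellet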
T4 sequence (P10520 whole entry): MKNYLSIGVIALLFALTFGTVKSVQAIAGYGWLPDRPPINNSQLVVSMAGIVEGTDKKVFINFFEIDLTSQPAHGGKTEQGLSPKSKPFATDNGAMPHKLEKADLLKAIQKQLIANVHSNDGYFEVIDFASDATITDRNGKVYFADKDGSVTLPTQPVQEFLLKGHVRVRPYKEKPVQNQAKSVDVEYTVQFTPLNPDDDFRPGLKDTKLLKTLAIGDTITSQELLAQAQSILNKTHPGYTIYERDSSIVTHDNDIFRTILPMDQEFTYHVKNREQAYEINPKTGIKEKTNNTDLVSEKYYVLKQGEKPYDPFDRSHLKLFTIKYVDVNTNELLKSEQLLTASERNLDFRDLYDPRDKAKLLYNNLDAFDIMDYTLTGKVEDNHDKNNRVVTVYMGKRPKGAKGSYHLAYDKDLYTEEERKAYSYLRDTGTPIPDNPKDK

Cytochrome P450 3A4 = Cytochrome P450 3A4 (Homo sapiens, UniProt P08684);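 note: CYP3A4 tested as one member of a cytochrome P450 panel screen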
Cytochrome P450 3A4, sequence (P08684 whole entry): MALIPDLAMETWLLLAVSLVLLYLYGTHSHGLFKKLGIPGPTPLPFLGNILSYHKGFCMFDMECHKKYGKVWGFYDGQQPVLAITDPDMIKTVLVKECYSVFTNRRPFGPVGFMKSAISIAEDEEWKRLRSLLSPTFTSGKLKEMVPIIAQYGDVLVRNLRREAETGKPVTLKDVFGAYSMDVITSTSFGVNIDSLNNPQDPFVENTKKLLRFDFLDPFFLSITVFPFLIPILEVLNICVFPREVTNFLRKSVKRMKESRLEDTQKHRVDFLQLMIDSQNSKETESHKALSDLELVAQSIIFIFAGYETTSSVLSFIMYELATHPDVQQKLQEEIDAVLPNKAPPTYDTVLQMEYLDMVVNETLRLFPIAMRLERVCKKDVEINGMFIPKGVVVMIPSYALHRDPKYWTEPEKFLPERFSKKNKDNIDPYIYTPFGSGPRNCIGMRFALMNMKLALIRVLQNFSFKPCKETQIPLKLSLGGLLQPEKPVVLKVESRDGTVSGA

Cytochrome P450 1A2 = target: T5, Cytochrome P450 1A2 (Homo sapiens, UniProt P05177);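 note: PubChem cytochrome P450 panel assay, CYP1A2 panel member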
T5 sequence (P05177 whole entry): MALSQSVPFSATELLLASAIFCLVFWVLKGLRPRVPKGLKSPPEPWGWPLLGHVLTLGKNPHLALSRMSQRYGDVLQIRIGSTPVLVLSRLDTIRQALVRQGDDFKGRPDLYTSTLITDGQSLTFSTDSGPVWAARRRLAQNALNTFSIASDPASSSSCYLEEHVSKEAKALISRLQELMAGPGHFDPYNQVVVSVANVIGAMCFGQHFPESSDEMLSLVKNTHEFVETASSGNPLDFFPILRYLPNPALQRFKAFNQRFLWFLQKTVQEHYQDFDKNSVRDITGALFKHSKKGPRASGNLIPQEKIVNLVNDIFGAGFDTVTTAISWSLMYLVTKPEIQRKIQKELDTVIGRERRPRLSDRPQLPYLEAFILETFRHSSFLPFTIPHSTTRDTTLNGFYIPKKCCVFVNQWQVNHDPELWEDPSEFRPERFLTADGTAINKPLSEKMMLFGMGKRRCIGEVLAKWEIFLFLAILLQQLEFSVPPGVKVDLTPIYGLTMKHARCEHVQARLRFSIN

[13] = HEp-2 cell cytotoxicity, dose response, cytotoxicity control for RSV inhibitor project, HTS (AID 2410); type: functional; conditions: human respiratory syncytial virus

## O=P(/C(=N/O)N1CCOCC1)(N1CCOCC1)N1CCOCC1
[1]
  EC50: > 53 µM (inactive)
[2]
  IC50: > 47.1 µM (inactive)

## O=C(Nc1ccc(N2CCN(c3ccccc3)CC2)c(F)c1)C1CC1
[1]
  EC50: > 53 µM (inactive)
[2]
  IC50: > 47.1 µM (inactive)

## CCCn1nc(C(=O)Nc2ccc(S(=O)(=O)Nc3nccs3)cc2)c2ccccc2c1=O
[3]
  EC50: 27.8 µM (active)
[4]
  EC50: > 150 µM (not active)

## Cc1cccc(N=C(S)NCC(C)CSc2ccc(Cl)cc2)c1 (stereo unspecified)
[5]
  AC50: 5.75 µM (active)

## Cn1cc(C(=O)C(=O)N[C@H]2CN3CCC2CC3)c2ccccc21
Cytochrome P450 2C9
  AC50: inconclusive

## Cc1ccc2nc(-c3ccccn3)c(Nc3ccccc3C)n2c1
Cells [6]
  EC50: > 350 µM (not active)
[7]
  EC50: 5.84 µM (active)
[8]
  EC50: 1.74 µM (active)
INS1
  AC50: 6.06 µM (active)
[5]
  AC50: 5.42 µM (active)
Cells [9]
  EC50: 18.6 µM (active)

## COCc1ccc(CN2CCC(C(=O)Nc3cccc(-c4cscn4)c3)CC2)o1
[1]
  EC50: > 53 µM (inactive)
[2]
  IC50: > 47.1 µM (inactive)

## Cc1c(C)c2c(c(C)c1O)CC[C@@](C)(CCC[C@@H](C)CCC[C@@H](C)CCCC(C)C)O2
Cytochrome P450 2C9
  AC50: inconclusive
Cytochrome P450 2C19
  AC50: inconclusive

## O=C(NCC1COc2ccccc2O1)C1CCN(S(=O)(=O)c2cccc3nsnc23)CC1 (stereo unspecified)
Cytochrome P450 2C9
  AC50: inconclusive

## COc1ccc(CCN2C(=O)NC(=O)/C(=C\NNC(=O)c3ccncc3)C2=O)cc1OC
[3]
  EC50: 43.7 µM (active)

## COC(=O)C1=COC(C)C2CN3CCc4c([nH]c5cc(OC)c(OC)cc45)C3CC12 (stereo unspecified)
[3]
  EC50: 14.4 µM (active)
[4]
  EC50: 15.5 µM (active)

## N#Cc1cc(N)ccc1Sc1ccc(Cl)cc1
Cytochrome P450 2C9
  AC50: inconclusive

## COc1cc(Nc2nc(-c3ccccc3)c3cc(C)ccc3n2)cc(OC)c1OC
[10]
  AC50: 60.2 µM (active)
[11]
  AC50: 6.55 µM (active)
[5]
  AC50: 5.05 µM (active)

## O=[N+]([O-])c1cc(/C=N\O)ccc1Oc1ccc(F)cc1
[1]
  EC50: > 53 µM (inactive)
[2]
  IC50: 24.9 µM (active)

## Cc1nn(-c2ccccc2)c(C)c1/C=N/NC(=O)c1cc(-c2ccc(Br)s2)[nH]n1
[12]
  EC50: 7.15 µM (active)
Streptococcus
  EC50: 11.8 µM (active)
Streptokinase A
  EC50: > 150 µM (not active)
[5]
  AC50: 0.434 µM (active)

## Cc1cc(C)c(NC(=O)c2ccc(CNS(=O)(=O)c3cc(C(F)(F)F)ccc3Cl)cc2)c(C)c1
[1]
  EC50: > 53 µM (inactive)
[2]
  IC50: > 47.1 µM (inactive)

## CCCCNC(=S)NNC(=O)c1cc(C)on1
[3]
  EC50: > 300 µM (not active)
[4]
  EC50: > 300 µM (not active)

## Cc1cc(NC(=O)c2ccc(S(=O)(=O)N(C)C)cc2)n(-c2ccccn2)n1
Cytochrome P450 2C9
  AC50: inconclusive

## CC(C)(c1ccccc1)c1ccc(OCCN2CCCC2)cc1
[5]
  AC50: 0.824 µM (active)

## CN1C(=O)C(=CNc2ccc(N3CCOCC3)cc2)C(=O)N(C)C1=S
[3]
  EC50: > 300 µM (inconclusive)
[4]
  EC50: > 300 µM (not active)

## N#Cc1c(-c2ccccc2Cl)c2c([nH]c1=O)-c1ccccc1OC2
[3]
  EC50: 38.8 µM (active)
[4]
  EC50: > 300 µM (inconclusive)

## CCC(C)[C@H](NC(=O)N1CCn2c1nc1ccccc12)C(=O)NCc1ccc(OC)cc1 (stereo partly specified)
[1]
  EC50: > 53 µM (inactive)
[2]
  IC50: > 47.1 µM (inactive)

## Cc1cc(C)cc(C(=O)Nc2cccnc2Cl)c1
[1]
  EC50: > 53 µM (inactive)
[2]
  IC50: > 47.1 µM (inactive)

## O=S(=O)(NCc1cc(-c2ccccc2Cl)no1)c1ccc(Cl)cc1
Cytochrome P450 3A4
  AC50: 20 µM (inconclusive)
Cytochrome P450 2C9
  AC50: inconclusive

## CCOc1ccc(Cc2nc(C)c(CC(=O)N3CCOCC3)c(O)n2)cc1
Cytochrome P450 2C9
  AC50: inconclusive

## CC(=O)NCCNc1ncncc1-c1ccccc1C
Cytochrome P450 2C9
  AC50: inconclusive
Cytochrome P450 1A2
  AC50: 25.1 µM (inconclusive)

## COc1ccc(C)cc1NC(=O)N1CCCc2ccccc21
[1]
  EC50: > 53 µM (inactive)
[2]
  IC50: > 47.1 µM (inactive)

## O=S(=O)(Nc1ccc(-n2cccc2)cc1)c1ccc(Cl)c(Cl)c1
[12]
  EC50: 7.42 µM (active)
Streptococcus
  EC50: 7.58 µM (active)
Streptokinase A
  EC50: 11.3 µM (inconclusive)
[5]
  AC50: 4.84 µM (active)

## COC(=O)N/N=C(\C)c1cccs1
[1]
  EC50: > 53 µM (inactive)
[2]
  IC50: > 47.1 µM (inactive)

## CN(C)c1cc(-c2ccc([N+](=O)[O-])cc2)oc(=O)c1Cl
[3]
  EC50: 165 µM (inconclusive)
[4]
  EC50: 49.5 µM (active)

## Cc1ccccc1C(=O)NNC(=O)c1ccc(F)cc1
Cytochrome P450 2C9
  AC50: inconclusive

## COc1ccc(C(=O)Nc2ccc(Nc3ccccc3)cc2)cc1[N+](=O)[O-]
[13]
  CC50: 12.2 µM (active)
[5]
  AC50: 2.69 µM (active)

## Cc1ccc(C)n1CCN1CCN(CC(=O)Nc2cc(C(F)(F)F)ccc2Cl)CC1
Cytochrome P450 2C9
  AC50: inconclusive

## CC(C)(C)c1ccc(Oc2ccc(N)cc2)cc1
[5]
  AC50: 1.85 µM (active)

Source: ChEMBL document CHEMBL1201862, “PubChem BioAssay data set” (2004)
